Assay [1] concerns DLD-1 parent cells. Kind of assay: CellTiter-Glo DLD-1 parent cell assay. It is filed as cell-based. Conditions: Homo sapiens, 144 h, 6 days, read-out: DLD-1 CTG EC50. The source says:
(§1) The DLD-1 BRCA2 (−/−) CellTiter-Glo® assay measured the synthetic lethality of PARP1/2 inhibitors and was used as a surrogate to allow measurement of activity of both PARP1 and PARP2 in cells. If PARP1 and PARP2 are inhibited and are trapped onto chromatin during DNA replication, there is replication fork stalling and accumulation of double strand breaks. In BR CA wild-type cells, the resulting double strand DNA breaks are repaired via homologous recombination. In cells with mutation of BRCA1 or BRCA2, homologous recombination repair of DNA double strand breaks is defective, and cell death occurs after PARP1/2 inhibitor treatment (Lord C J, Ashworth A. PARP inhibitors: synthetic lethality in the clinic. Science. 2017 Mar. 17; 355(6330):1152-1158). Testing compounds in viability assays with the DLD-1-BR CA 2 (−/−) and DLD-1 parent cell enabled assessment on PARP1/2-dependent (cytotoxicity in the BRCA2 (−/−) cells only) vs. non-selective cytotoxicity in both cell lines.
(§2) Compound stock solutions (10 mM) were serially diluted in 3-fold increments in dimethyl sulfoxide (DMSO). Sample aliquots (120 nL) were dispensed into Corning® 384-well Flat Clear Bottom White Polystyrene TC-treated Microplates (Corning Life Sciences, Corning, NY, USA) using an ECHO® 550 acoustic Labcyte dispenser (Beckman-Coulter Life Sciences, Indianapolis, IN, USA) to achieve concentrations between 30 μM and 0.5 nM in the assay. In the assay, 40 μL of 500 DLD-1 parent cells (HORIZON® Therapeutics, Deerfield, IL, USA) or 40 μL of 1200 DLD-1-BRCA2 (−/−) cells (HORIZON Therapeutics) in complete growth medium containing RPMI 1640 growth medium (ThermoFisher Scientific, Waltham, MA, USA) supplemented with 20 mg/L L-glutamate, 25 mM HEPES (4-(2-hydroxyethyl)-1-piperazineethanesulfonic acid), 10% (v/v) heat inactivated FBS (fetal bovine serum), and 1% (w/v) Penicillin-Streptomycin were added.
(§3) Duplicate cell plates with 40 μL cells/well along with various concentrations of compounds were kept in Nunc™ Square BioAssay Dishes (Thermo Fisher Scientific) at 98% relative humidity in a 5% CO2 incubator at 37° C. for 6 days. On day 7, plates were moved to ambient lab conditions for 10 minutes until the temperature equilibrated. Following equilibration, CellTiter-Glo® Luminescent Cell Viability Assay reagent (Promega™, Madison, WI, USA) was added (15 μL) to each well of the plates. After a 20 minutes incubation, luminescence was detected using a ViewLux™ microplate imager (PerkinElmer, Waltham, MA, USA). Data analysis was performed using GraphPad Prism (Dotmatics, Boston, MA, USA).

Assay [2] has as its system DLD-1 BRCA2 (−/−) cells. In words: CellTiter-Glo DLD-1 BRCA2 (−/−) cell assay for PARP1/2 inhibition. Particulars: Homo sapiens, 144 h, 6 days, read-out: DLD-1 BRCA2 (−/−) CTG EC50. It is filed as cell-based.
Description: as §1, §2, §3

The subject of assay [3] is NCI-H1373 cells. In words: NCI-H1373 CellTiter-Glo cell assay for TIPARP inhibition. It is filed as cell-based, human. Particulars: Homo sapiens, NCI-H1373, 144 h; 6 days, 100 nM 10-Cl-BBQ in medium; read-out: NCI-H1373 CTG EC50. The method, then:
The NCI-H1373 CellTiter-Glo® assay was used to determine cell numbers after TIPARP inhibition-induced cell cycle arrest, and enabled screening of compounds for cellular TIPARP inhibition potency.
Compound stock solutions (10 mM) were serially diluted in 3-fold increments in dimethyl sulfoxide. Sample aliquots (120 nL) were dispensed into Corning® 384-well Flat Clear Bottom White Polystyrene TC-treated Microplates (Corning Life Sciences, Corning, NY, USA) using an ECHO® 550 acoustic Labcyte dispenser (Beckman-Coulter Life Sciences, Indianapolis, IN, USA) to achieve final concentrations between 30 μM and 0.5 nM in the assay. This was followed by the addition of 40 μL of 1000 NCI-H1373 cells (ATCC®, Manassas, VA, USA) in complete growth medium RPMI 1640 growth medium (Thermo Fisher Scientific, Waltham, MA, USA) supplemented with 20 mg/L L-glutamate, 25 mM HEPES (4-(2-hydroxyethyl)-1-piperazineethanesulfonic acid), 10% (v/v) heat inactivated FBS (fetal bovine serum), 1% (w/v) penicillin-streptomycin, and 100 nM 10-Cl-BBQ (10-chloro-7H-benzimidazo[2,1-a]benz[de]isoquinolin-7-one, (Tocris, Minneapolis, MN, USA). Duplicate cell plates with 40 μL cells/well along with various concentrations of compounds were kept in Nunc™ Square BioAssay Dishes (Thermo Fisher Scientific) at 98% relative humidity in a 5% C02 incubator at 37° C. for 6 days. On day 7, plates were moved to ambient lab conditions for 10 minutes until the temperature equilibrated. Following equilibration, CellTiter-Glo® Luminescent Cell Viability Assay reagent (Promega™, Madison, WI, USA) was added (15 μL) to each well of the plates. After a 20 minutes incubation, luminescence was detected using a ViewLux™ microplate imager (PerkinElmer, Waltham, MA, USA). Data analysis was performed using GraphPad Prism (Dotmatics, Boston, MA, USA).
(Cellular ATP, detected with luciferase, serves as a proxy for viable cell number.)

For assay [4], the target named is TIPARP GST-(TEV) (Homo sapiens (Human), UniProt Q7Z3E1). Kind of assay: TR-FRET binding assay, TIPARP. Conditions: for IC50: TR-FRET, Probe 1, 2 hours incubation; for PARP1/TIPARP IC50 Ratio: ratio of PARP1 GST IC50 to TIPARP GST-(TEV) IC50. The source says: The full-length cDNA encoding the human TIPARP (NP_001171647.1, UniProtKB-Q7Z3E1) of 657 amino acids was the template to generate the expression construct. […] The TIPARP fusion protein includes GST, glutathione S-transferase, a 26 kDa protein whose DNA sequence is frequently integrated into expression vectors for production of recombinant proteins. A […], was cloned into vector pFastBacTM 1 (Thermo Fisher Scientific) with an N-terminal GST tag followed by a TEV protease site to produce the TIPARP fusion protein, TIPARP GST-(TEV). TR-FRET assays were used to measure the binding of compounds to TIPARP and PARP1, and to characterize biochemical selectivity. Compound stock solutions (10 mM) were serially diluted in 3-fold increments in dimethyl sulfoxide (DMSO). Diluted compounds were dispensed (30 nL) into white ProxiPlate-384-well plates (PerkinElmer, Waltham, MA, USA) using an ECHO® 550 acoustic Labcyte dispenser (Beckman-Coulter Life Sciences, Indianapolis, IN, USA) to achieve a final starting concentration of 30 μM to 0.5 nM in the assay. This was followed by addition of 5 μL of 2× protein/probe mix (Table 2) made in assay buffer (Tris-HCl 50 mM pH 8.0; 5 mM MgCl2; 5 μM ZnCl2; 1 mM DTT (dithiothreitol); 0.15% BSA (bovine serum albumin) (w/v); and 0.01% TritonX-100 (w/v)) at final concentrations listed in Table 2. Subsequently, 5 μL of 2× antibody (Tb-labeled anti-GST antibody, Thermo Fisher Scientific, Waltham, MA, USA) in HEPES buffered saline was added to each well at a final concentration of 1 nM. The samples were then incubated for 2 hours under ambient conditions. Fluorescence was measured and TR-FR ET ratios were determined on an EnVision multimode plate reader (PerkinElmer) using a 520 nanometer (nm) excitation wavelength and collecting fluorescence emission at 495 nm. […] [table]
Chain of TIPARP GST-(TEV) (Q7Z3E1 441-657): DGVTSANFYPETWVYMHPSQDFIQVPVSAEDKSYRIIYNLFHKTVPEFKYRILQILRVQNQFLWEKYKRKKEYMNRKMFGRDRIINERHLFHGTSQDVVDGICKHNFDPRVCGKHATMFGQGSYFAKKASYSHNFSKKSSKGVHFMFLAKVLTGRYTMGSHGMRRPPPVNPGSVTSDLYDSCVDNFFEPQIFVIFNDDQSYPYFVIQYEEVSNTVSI
On the technique in general: TR-FRET usually uses a lanthanide donor and a delayed reading to cut background.

In assay [5] the target is PARP1 GST (Homo sapiens (Human), UniProt P09874). In words: TR-FRET binding assay, PARP1. Particulars: Probe 2, 2 hours incubation. The method, then:
TR-FRET assays were used to measure the binding of compounds to TIPARP and PARP1, and to characterize biochemical selectivity. Compound stock solutions (10 mM) were serially diluted in 3-fold increments in dimethyl sulfoxide (DMSO). Diluted compounds were dispensed (30 nL) into white ProxiPlate-384-well plates (PerkinElmer, Waltham, MA, USA) using an ECHO® 550 acoustic Labcyte dispenser (Beckman-Coulter Life Sciences, Indianapolis, IN, USA) to achieve a final starting concentration of 30 μM to 0.5 nM in the assay. This was followed by addition of 5 μL of 2× protein/probe mix (Table 2) made in assay buffer (Tris-HCl 50 mM pH 8.0; 5 mM MgCl2; 5 μM ZnCl2; 1 mM DTT (dithiothreitol); 0.15% BSA (bovine serum albumin) (w/v); and 0.01% TritonX-100 (w/v)) at final concentrations listed in Table 2. Subsequently, 5 μL of 2× antibody (Tb-labeled anti-GST antibody, Thermo Fisher Scientific, Waltham, MA, USA) in HEPES buffered saline was added to each well at a final concentration of 1 nM. The samples were then incubated for 2 hours under ambient conditions. Fluorescence was measured and TR-FR ET ratios were determined on an EnVision multimode plate reader (PerkinElmer) using a 520 nanometer (nm) excitation wavelength and collecting fluorescence emission at 495 nm.

SMILES strings stand for the structures.

Chain of PARP1 GST (P09874 whole entry): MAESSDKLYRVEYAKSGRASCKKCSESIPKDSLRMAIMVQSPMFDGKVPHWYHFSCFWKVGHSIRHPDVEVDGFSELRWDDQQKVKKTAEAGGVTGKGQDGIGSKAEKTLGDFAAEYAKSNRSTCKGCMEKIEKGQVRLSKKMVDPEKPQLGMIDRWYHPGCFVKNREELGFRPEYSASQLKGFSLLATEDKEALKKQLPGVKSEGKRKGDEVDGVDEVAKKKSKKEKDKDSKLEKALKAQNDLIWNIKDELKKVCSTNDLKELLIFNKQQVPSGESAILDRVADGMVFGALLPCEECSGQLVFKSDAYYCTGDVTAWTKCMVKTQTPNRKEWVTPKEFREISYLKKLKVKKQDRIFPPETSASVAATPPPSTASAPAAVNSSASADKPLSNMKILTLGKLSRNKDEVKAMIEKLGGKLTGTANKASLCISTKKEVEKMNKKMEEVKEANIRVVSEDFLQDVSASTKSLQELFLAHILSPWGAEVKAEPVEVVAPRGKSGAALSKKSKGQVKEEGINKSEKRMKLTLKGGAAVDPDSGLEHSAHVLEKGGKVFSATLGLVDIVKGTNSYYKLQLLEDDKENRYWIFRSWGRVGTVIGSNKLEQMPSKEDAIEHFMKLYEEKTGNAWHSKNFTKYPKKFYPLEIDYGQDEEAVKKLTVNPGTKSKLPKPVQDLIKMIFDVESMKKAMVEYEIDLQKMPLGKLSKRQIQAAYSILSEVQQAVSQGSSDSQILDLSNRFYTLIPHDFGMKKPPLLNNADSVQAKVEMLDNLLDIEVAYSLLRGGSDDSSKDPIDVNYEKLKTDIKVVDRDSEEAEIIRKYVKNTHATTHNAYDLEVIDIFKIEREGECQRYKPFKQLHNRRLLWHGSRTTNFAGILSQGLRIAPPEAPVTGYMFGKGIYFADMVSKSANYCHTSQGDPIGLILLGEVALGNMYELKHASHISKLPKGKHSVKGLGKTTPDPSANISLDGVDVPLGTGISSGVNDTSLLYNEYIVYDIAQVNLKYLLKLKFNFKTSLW

For `C[C@@H]1CN(c2ncc(C(F)(F)F)cn2)C[C@H](C)N1C(=O)[C@H]1C[C@@H](c2c[nH]c(=O)c(C(F)(F)F)c2)C1` [Example 2, 5-[(1s,3s)-3-{(2R,6S)-2,6-dimethyl-4-[5-(trifluoromethyl)pyrimidin-2-yl]piperazine-1-carbonyl}cyclobutyl]-3-(trifluoromethyl)pyridin-2(1H)-one], the EC50 in assay [1] is 22.1 µM; in assay [2], 16.5 µM; in assay [3], 0.0322 µM. The figures for the IC50 in assay [4] and in assay [5] were 0.00375 µM and 5.02 µM, respectively. Besides, the “PARP1/TIPARP IC50 Ratio” value in assay [4] came to 1340.

In the case of `C[C@@H]1CN(C(=O)[C@H]2C[C@@H](c3c[nH]c(=O)c(C(F)(F)F)c3)C2)CCN1c1ncc(C(F)(F)F)cn1` [Example 3, 5-[(1S,3s)-3-{(3R)-3-methyl-4-[5-(trifluoromethyl)pyrimidin-2-yl]piperazine-1-carbonyl}cyclobutyl]-3-(trifluoromethyl)pyridin-2(1H)-one], the EC50 is above 30 µM in assay [1], 5.03 µM in assay [2] and 0.00965 µM in assay [3]. Besides, the IC50 (commonly the concentration that gives 50% inhibition) was 0.00474 µM in assay [4] and 0.504 µM in assay [5]. For the same compound, the “PARP1/TIPARP IC50 Ratio” value in assay [4] was 106.

As to `C[C@@H]1CN(C(=O)[C@H]2C[C@@H](c3c[nH]c(=O)c(C(F)(F)F)c3)C2)C[C@H](C)N1c1ncc(C(F)(F)F)cn1` [Example 4, 5-[(1s,3s)-3-{(3R,5S)-3,5-dimethyl-4-[5-(trifluoromethyl)pyrimidin-2-yl]piperazine-1-carbonyl}cyclobutyl]-3-(trifluoromethyl)pyridin-2(1H)-one], the EC50 in assay [1] worked out at 23.9 µM; in assay [2], 7.17 µM; in assay [3] it was 0.0111 µM. Moreover, the IC50 was 0.0057 µM in assay [4] and 3.12 µM in assay [5]. In addition, in assay [4], the “PARP1/TIPARP IC50 Ratio” value turned out to be 547.

For the compound `C[C@@H]1CN(C(=O)[C@H]2C[C@@H](c3c[nH]c(=O)c(C(F)(F)F)c3)C2)C[C@H](C)N1c1ncc(C(C)(C)O)cn1` [Example 5, 5-[(1s,3s)-3-{(3R,5S)-4-[5-(2-hydroxypropan-2-yl)pyrimidin-2-yl]-3,5-dimethylpiperazine-1-carbonyl}cyclobutyl]-3-(trifluoromethyl)pyridin-2(1H)-one], the EC50 in assay [1] was above 30 µM; in assay [2], 20.5 µM; in assay [3], 0.0344 µM. The IC50 turned out to be 0.0023 µM in assay [4] and 2.24 µM in assay [5]. For the same compound, in assay [4], the “PARP1/TIPARP IC50 Ratio” value is recorded as 974.

For `C[C@H]1CN(c2ncc(C(F)(F)F)cn2)CCN1C(=O)[C@H]1C[C@@H](c2c[nH]c(=O)c(C(F)(F)F)c2)C1` [Example 6, 5-[(1R,3s)-3-{(2S)-2-methyl-4-[5-(trifluoromethyl)pyrimidin-2-yl]piperazine-1-carbonyl}cyclobutyl]-3-(trifluoromethyl)pyridin-2(1H)-one], the EC50 in assay [1] came to 14.4 µM; in assay [2] it was 1.13 µM; in assay [3], 0.0454 µM. The IC50 in assay [4] is 0.00343 µM; in assay [5], 0.283 µM. The “PARP1/TIPARP IC50 Ratio” value in assay [4] is recorded as 82.5.

For `C[C@@H]1CN(C(=O)[C@H]2C[C@@H](c3c[nH]c(=O)c(C(F)(F)F)c3)C2)CCN1c1ncc(C(C)(C)O)cn1` [Example 7, 5-[(1S,3s)-3-{(3R)-4-[5-(2-hydroxypropan-2-yl)pyrimidin-2-yl]-3-methylpiperazine-1-carbonyl}cyclobutyl]-3-(trifluoromethyl)pyridin-2(1H)-one], the EC50 in assay [1] is above 30 µM; in assay [2] it was 17.2 µM; in assay [3], 0.0717 µM. For the same compound, the IC50 came to 0.00379 µM in assay [4] and 1.58 µM in assay [5]. Moreover, in assay [4], the “PARP1/TIPARP IC50 Ratio” value is 417.

Take `C[C@H]1CN(C(=O)[C@H]2C[C@@H](c3c[nH]c(=O)c(C(F)(F)F)c3)C2)CCN1c1ncc(C(F)(F)F)cn1` [Example 8, 5-[(1R,3s)-3-{(3S)-3-methyl-4-[5-(trifluoromethyl)pyrimidin-2-yl]piperazine-1-carbonyl}cyclobutyl]-3-(trifluoromethyl)pyridin-2(1H)-one]: the EC50 in assay [1] was above 30 µM; in assay [2], 5.73 µM; in assay [3], 0.0559 µM. For the same compound, the results for the IC50 in assay [4] and in assay [5] were 0.00879 µM and 1.2 µM, respectively. Further, the “PARP1/TIPARP IC50 Ratio” value in assay [4] stood at 137.
